In patent US9707284B2, “Formulations of peptides and chloroquines for the treatment of pathogenic immune responses in immune mediated diseases” (The Regents of the University of California, priority 2006, dated 2017):
Where a SMILES comes first, the peptide text is derived from it.

What was measured:
[1] = Phase II clinical trial with dnaJP1 in RA: safety, adverse events; type: in vivo, human; settings: 25 mg per os daily, 168 days
Procedure: A double-blinded, placebo-controlled ITT trial was designed to test for the first time if immune tolerization to dnaJp1 observed in the trial translated into clinical amelioration of the disease. dnaJP1 was tested as a first line inducer of remission in patients with early RA.

T cells = settings: human, in vivo

For `C[C@H](NC(=O)[C@H](C)NC(=O)[C@H](Cc1c[nH]cn1)NC(=O)CNC(=O)[C@H](Cc1ccc(O)cc1)NC(=O)[C@H](CCC(N)=O)NC(=O)[C@H](CC(=O)O)NC(=O)[C@H](Cc1ccc(O)cc1)NC(=O)[C@H](C)NC(=O)[C@H](C)NC(=O)[C@H](CCCNC(=N)N)NC(=O)[C@H](CCCCN)NC(=O)[C@@H](N)CCC(N)=O)C(=O)N[C@@H](Cc1ccccc1)C(=O)N[C@@H](CCC(=O)O)C(=O)O` [dnaJP1, QKRAAYDQYGHAAFE] (H-QKRAAYDQYGHAAFE-OH), the safety and tolerability [1] was “safe and well tolerated” and the “ability of T cells to respond to the recall antigen Tetanus Toxoid” value (T cells) was “remained intact”.
